# Data reported in patent US9668984B2, “Use of compounds to inhibit 5 α-reductase enzyme activity, and pharmaceutical and cosmetic compostions containing them” (GIULIANI S.P.A., priority 2008, dated 2017).
# Marks after values point to notes of the source that are not given here.
# Columns and labels:
# [1] = test system: transplanted hair follicles; test: Further clinical study: topical scalp treatment around hair transplantation; assay type: in vivo, human; conditions: once a day from 15 days before to 90 days after the transplant
# 5α-reductase = test: Modulation of 5α-reductase activity (testosterone to DHT conversion, ELISA) in mouse fibroblasts after 48 hours of treatment; assay type: cell-based; conditions: for % inhibition of 5α-reductase / Total DHT ng (±SE) / Inhibition of 5α-reductase activity in vitro (result in words): 0.1 mg/ml, 48 hours; for % inhibition of 5α-reductase / Total DHT ng (±SE): pre-incubation for 24 hours with testosterone 10 ng/ml; for % inhibition of 5α-reductase: confidence interval; for Total DHT ng (±SE): final table; for Testosterone, cell extract / Testosterone, supernatant / DHT, cell extract / DHT, supernatant / Final DHT, cell extract / Final DHT, supernatant / Total DHT produced: sample 100 μg/ml; for Testosterone, cell extract / Testosterone, supernatant / DHT, cell extract / DHT, supernatant: 48 h; for Testosterone, cell extract: Balb/c-3T3; for Testosterone, supernatant: Balb/c-3T3 pre-incubated 24 h with testosterone 10 ng/ml; for DHT, cell extract / DHT, supernatant: uncorrected measured DHT; for Final DHT, cell extract: corrected for testosterone crosslinking; for Final DHT, supernatant: measured DHT minus bovine serum DHT minus testosterone crosslinking; for Total DHT produced: per flask (supernatant 10 ml + cell extract 0.5 ml); for Inhibition of 5α-reductase activity in vitro (result in words): mouse fibroblasts Balb/c-3T3, versus untreated control
# Description: Assessment of the modulation of 5α-reductase activity after treatment for 48 hours with the above-stated compounds in a cell line of mouse fibroblasts.
# For this test, the fibroblasts were pretreated with testosterone to increase the basal production of 5α-reductase, then they were treated with the above-mentioned compounds for 48 hours.
# At the end of the treatment, the conversion of testosterone into DHT was measured in the treated and untreated cell cultures, using a two-way ELISA. This procedure enables an estimation of the percentage inhibition or stimulation of the specific activity of 5α-reductase.
# As a positive control, we used a titrated extract of Serenoa repens (saw palmetto), a plant known in the pharmacopoeia for its capacity to inhibit 5α-reductase and recommended for said purpose in the treatment of prostatic hyperplasia in males.
# The cell model used for the in vitro test consisted of mouse fibroblasts Balb/c-3T3. This cell line derives from fibroblasts of […] mouse embryos.
# The samples of the above-described compounds were solubilised as follows: • 2,4,6-octatrien-1-ol: 1 mg/ml in absolute ethanol • alternative Boehmeria: 5 mg/ml in growth medium+5% DMSO • traditional Boehmeria: 2.5 mg/ml in growth medium+5% DMSO • Ajuga reptans extract: 5 mg/ml in growth medium+5% DMSO • Finasteride: 5 mg/ml in absolute ethanol • Serenoa repens: 10 μl/ml in absolute ethanol Treatment and Exposure Pre-Incubation
# The cells were seeded in 25 cm^2 flasks (T25) in DMEM (Dulbecco's […]) with the addition of 10% FBS (foetal bovine serum). As soon as confluence was achieved, the cultures were treated for 24 hours with 10 ng/ml of testosterone.
# After the pre-incubation phase, the cell cultures were treated with said samples at the final concentration of 0.1 mg/ml. The Serenoa repens extract at 0.1 mg/ml was used as a positive control, while the negative control consisted in plates treated with the solvent. Exposure was protracted for 48 hours in the incubator at 37° C., 5% CO2, renewing the medium every 24 hours. Each sample was tested in duplicate.
# At the end of the experiment, a cell count was conducted to assess any cytotoxic effects. The of DHT and testosterone content was measured using immunodiagnostic tests (ELISA) in the extracellular (conditioned growth media) and in the intracellular (cell extracts) compartments.
# At the end of the experiment, the growth medium was collected from each flask and a cell extract was prepared.
# This was done in four stages: • trypsinisation of the cell layer in situ in the flask • centrifugation and collection of the cells in pellets • extraction with Triton X-100 (1% in basal medium) • ultrasonication for 30 minutes. DHT and Testosterone Measurement
# The two hormones, DHT and testosterone, were measured both in the supernatant (extracellular DHT/testosterone) and in the cell extracts (intracellular DHT/testosterone).
# It is therefore of fundamental importance to determine the quantity of testosterone remaining at the end of the test in order to distinguish it from the newly-synthesised DHT. Moreover, the presence of DHT in foetal bovine serum (FBS), the main component in the growth medium, represents a source of exogenous DHT that must be taken into account in calculating the DHT actually produced by the cells starting from the testosterone.
# The method involves the composition of a standard curve, calculated in an appropriate range of concentrations, and uses specific antibodies immobilised on a solid substrate directed against DHT/testosterone, and a reagent that competes for binding to the antibody.
# alopecia greata = test: Clinical pilot study, group with alopecia greata (area celsi), topical administration on the scalp; assay type: in vivo, human
# Description: (§1) A clinical pilot study was also conducted to assess the efficacy of a composition according to the invention in the treatment of male and female androgenetic alopecia and alopecia greata.
# (§2) In the composition according to the invention forming the object of this clinical study, said active principle was a salt, and a potassium salt in particular, of 2,4,6-octatrienoic acid, formulated for topical administration on the scalp, in a single daily dose.
# Alopecia greata (also called area celsi) is a disease involving sudden hair loss typically giving rise to bald patches (or areas).
# A significant characteristic of the evolutional stages of alopecia greata is the presence of “exclamation mark” hairs, so called because they appear tapered towards the base.
# For the group of individuals treated, the pilot study only enabled us to identify a trend (clinical improvement, stability, worsening) within the short time span considered, i.e. from the baseline T0 before starting the treatment up to T2 after three months of treatment, based on the following parameters: • hair loss • progression of bald patches on the scalp • presence of exclamation mark hairs Results
# androgenetic alopecia = test: Clinical pilot study, Group 1: androgenetic alopecia, topical administration on the scalp; assay type: in vivo, human
# Description: as §1, §2
# Thirty individuals of both genders were recruited (15 males and 15 females) aged between 18 and 55 years, suffering from androgenetic alopecia (grades I-III according to the Hamilton scale for men, and I-II according to the Ludwig scale for women). Since this was a pilot study, an open trial was conducted, administering the composition of the invention.
# Exclusion criteria from the study were as follows: • concomitant hormonal and/or pharmacological therapies; • pregnancy and breast-feeding; • systemic hormonal, metabolic and autoimmune diseases; • specific trichological treatments in the previous three months; • concomitant inflammatory diseases of the scalp, e.g. seborrhoeic dermatitis, irritative or allergic dermatitis.
# The clinical and dermoscopic assessment of the individuals to treat focused on: hair shaft diameter, presence of a perifollicular halo, evaluation of the anagen phase by epiluminescence study of the bulb.
# After the baseline assessment at T0, before starting the treatment, two evaluations after the treatment were conducted, one at T1 after 1 month, and one at T2 after 3 months.
# At each follow-up assessment, a clinical evaluation was performed using epiluminescence to establish the hair shaft diameter in a previously-established and marked area (MoleMax II, Dermal Instruments Italia).
# [2] = T0 to T2 (three months of treatment)
# [3] = T2 after 3 months, mean at T0 0.4 mm
# [4] = T2 after 3 months, mean at T0 56%
# [5] = single daily topical dose, epiluminescence, follow-up to T2 (3 months)
molecule,measurement,setting,value
"2,4,6-octatrienoic acid salt",Prevention of premature apoptosis and catagen in transplanted hair follicles (result in words),[1],promising
"C/C=C/C=C/C=C/CO [2,4,6-octatrien-1-ol, 2E,4E,6E-Octatrien-1-ol]",% inhibition of 5α-reductase,5α-reductase,27-43%
same,Total DHT ng (±SE),5α-reductase,2.3 (±0.1) ng
same,"Testosterone, cell extract",5α-reductase,1 ng/mL
same,"Testosterone, supernatant",5α-reductase,1.25 ng/mL
same,"DHT, cell extract",5α-reductase,450 pg/mL
same,"DHT, supernatant",5α-reductase,425 pg/mL
same,"Final DHT, cell extract",5α-reductase,363 pg/mL
same,"Final DHT, supernatant",5α-reductase,216 pg/mL
same,Total DHT produced,5α-reductase,2.34 ng
CC(C)(C)NC(=O)[C@H]1CC[C@H]2[C@@H]3CC[C@H]4NC(=O)C=C[C@]4(C)[C@H]3CC[C@]12C [Finasteride],Inhibition of 5α-reductase activity in vitro (result in words),5α-reductase,no significant inhibitory effect
same,Inhibition of 5α-reductase activity in vitro (result in words),5α-reductase; listed as finasteride,no real inhibitory effect
same,% inhibition of 5α-reductase,5α-reductase,0-15* %
same,Total DHT ng (±SE),5α-reductase,3.6 (±0.3) ng
same,"Testosterone, cell extract",5α-reductase,3.1 ng/mL
same,"Testosterone, supernatant",5α-reductase,0 ng/mL
same,"DHT, cell extract",5α-reductase,400 pg/mL
same,"DHT, supernatant",5α-reductase,450 pg/mL
same,"Final DHT, cell extract",5α-reductase,130 pg/mL
same,"Final DHT, supernatant",5α-reductase,350 pg/mL
same,Total DHT produced,5α-reductase,3.57 ng
"CC=CC=CC=CC(=O)[O-].[K+] [potassium salt of 2,4,6-octatrienoic acid]",Individuals in whom defluvium of hair in the affected areas diminished,alopecia greata; [2],55%
same,Individuals with stabilisation of the bald patches,alopecia greata; [2],15%
same,Individuals with stoppage in the progression and slight reduction in the extent of the bald patches,alopecia greata; [2],43%
same,"Number of exclamation mark hairs at T2, individuals with stabilisation or slight improvement in bald patches","alopecia greata; T2, mean 82% at T0",46%
same,"Number of exclamation mark hairs at T2, individuals with worsening bald patches","alopecia greata; T2, mean 83% at T0",82%
same,Side effects after using the product,alopecia greata; alopecia greata group,None of the individuals revealed any side effects
same,Individuals treated with global trend towards an improvement (clinical improvement and stabilisation of the bald patches),alopecia greata; three months of treatment,58%
same,Individuals treated with androgenetic alopecia parameters modified in a globally positive manner,androgenetic alopecia; 3 months topical treatment,83%
same,"Hair shaft diameter at T2, Group A)",androgenetic alopecia; [3],0.7 mm
same,"Hair shaft diameter at T2, Group B)",androgenetic alopecia; [3],0.6 mm
same,"Hair shaft diameter at T2, Group C)",androgenetic alopecia; [3],0.4 mm
same,"Percentage of bulbs in the anagen phase at T2, Group A)",androgenetic alopecia; [4],83%
same,"Percentage of bulbs in the anagen phase at T2, Group B)",androgenetic alopecia; [4],74%
same,"Percentage of bulbs in the anagen phase at T2, Group C)",androgenetic alopecia; [4],61%
same,Side effects after using the product,androgenetic alopecia; androgenetic alopecia group,None of the individuals showed any side effects
same,Cases with increase in hair shaft diameter judged highly significant (A),androgenetic alopecia; [5],62%
same,Cases with increase in hair shaft diameter judged not significant (C),androgenetic alopecia; [5],17%
same,Cases with increase in hair shaft diameter judged significant (B),androgenetic alopecia; [5],21%
